According to patent US9242933B2 (AbbVie Deutschland GmbH & Co. KG, priority 2007, dated 2016):

The molecules below were run against T1, human mGlu2 receptor (Homo sapiens, UniProt Q14416) (assay: FLIPR intracellular Ca2+ assay, potentiation of glutamate response in HEK293 clone expressing mGlu2 receptor, rGLAST and Galpha16). Conditions: 1 μM glutamate added ten minutes after test compound, HEK293 cells with human mGlu2, rGLAST, Galpha16, read-out: EC50 values of potentiation effect to glutamate.
T1 construct: expressed in transfected cells; host or cells: HEK293
T1 sequence (Q14416 19-872): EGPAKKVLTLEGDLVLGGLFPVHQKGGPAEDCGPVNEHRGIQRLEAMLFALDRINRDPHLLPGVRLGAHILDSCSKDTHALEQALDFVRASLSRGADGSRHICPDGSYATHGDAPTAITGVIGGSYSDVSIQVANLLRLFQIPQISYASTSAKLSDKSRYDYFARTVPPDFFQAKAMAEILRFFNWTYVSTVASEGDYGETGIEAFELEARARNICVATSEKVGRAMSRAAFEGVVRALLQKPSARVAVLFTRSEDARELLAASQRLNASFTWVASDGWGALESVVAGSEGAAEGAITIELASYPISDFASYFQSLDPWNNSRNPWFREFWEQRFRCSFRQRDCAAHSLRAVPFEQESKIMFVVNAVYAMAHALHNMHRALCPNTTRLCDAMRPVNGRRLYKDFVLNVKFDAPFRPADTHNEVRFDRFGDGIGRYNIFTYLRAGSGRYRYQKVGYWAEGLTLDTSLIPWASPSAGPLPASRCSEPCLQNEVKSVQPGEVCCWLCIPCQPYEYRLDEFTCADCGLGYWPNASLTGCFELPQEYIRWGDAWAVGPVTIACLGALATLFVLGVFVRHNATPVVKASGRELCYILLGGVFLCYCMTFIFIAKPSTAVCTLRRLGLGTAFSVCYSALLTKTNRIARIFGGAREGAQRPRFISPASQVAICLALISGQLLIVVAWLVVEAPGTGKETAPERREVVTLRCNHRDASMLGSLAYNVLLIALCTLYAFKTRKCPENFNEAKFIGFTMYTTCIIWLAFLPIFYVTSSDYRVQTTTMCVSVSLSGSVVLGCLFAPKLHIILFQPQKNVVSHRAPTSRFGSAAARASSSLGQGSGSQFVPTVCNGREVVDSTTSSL
Assay type: cell-based
Excerpt: The compounds of the present invention can be tested e.g. by evaluating intracellular Ca^2+ concentrations in cells permanently expressing human mGlu receptor, the rat glutamate transporter rGLAST and the Galpha16 subunit of the G-protein complex under standard conditions in a fluorometric imaging plate reader (FLIPR, Molecular Devices, Union City, Calif. 94587, USA) by measuring the response of the cells to a test compound in the absence of presence of glutamate. The FLIPR assay is a common functional assay to monitor native or recombinant Galphaq-coupled receptors, and native or recombinant receptors normally linked to other G-protein signalling cascades, which are coupled to calcium through co-expression of an alpha subunit of a promiscuous or chimeric G-protein. In the assay the increase of intracellular calcium is measured through a calcium-dependent fluorescent dye (e.g. Fluo-4 AM) in the FLIPR instrument.
For the purpose of the present study, a cell line permanently expressing a human mGlu receptor, such as the mGlu2 receptor, the rat glutamate transporter rGLAST and the GalphaG16 may be generated by transfection as described in the examples. For selection of a suitable cell clone and also the subsequent measurements, the selected clone the cells will be plated on suitable multiwell plates in a suitable medium (e.g. DMEM Glutamax (GIBCO #21885-025)/10% dialyzed FCS). Cells may be selected by gentamycin treatment as described in the examples. Cells will then be loaded with a suitable Ca^2+ sensitive fluorescence dye, e.g. with 2 μM Fluo-4 AM (Molecular Probes, F14201). Cells will then be washed with a suitable buffer (e.g. HEPES) and the thus treated plates will be measured in a fluorometric imaging plate reader (e.g. FLIPR, Molecular Devices, Union City, Calif. 94587, USA).
The compounds of the present invention were tested in the above-described FLIPR assay using the selected cell clone. Increased intracellular calcium levels were quantified following addition of test compound (agonism), as well as following addition of a submaximal concentration of glutamate (potentiation).
For the determination of the effect of the test compound by itself (agonism) or by increasing the response to a submaximal concentration (e.g. 1 μM) of glutamate (potentiation), the resulting signal is determined by subtraction of the background fluorescence from the maximal fluorescent peak height of the respective response. In the FLIPR instrument the compound is given to the cell and its fluorescence response quantified by the FLIPR instrument (agonism). The concentration at which the compound exerts half its maximal effect is named the ‘effective concentration 50’ or ‘EC50’. The maximal effect induced by the test substance is normalized to the maximal effect exerted by 100 μM glutamate (set at 100%).
After addition of the test compound to the plate, a submaximal concentration of glutamate (e.g. 1 μM glutamate) will be added. A potentiator enhances the response of the receptor to glutamate. The response to glutamate in the presence of test compound is quantified. The concentration at which the test compound is able to exert half its maximal potentiation effect to glutamate is named the ‘EC50’. The maximal response to the submaximal concentration of glutamate (e.g. 1 micromolar glutamate) in the presence of test compound is normalized to the maximal effect exerted by 100 micromolar glutamate (set at 100%). Least squares curve fitting with a four-parameter equation is then applied to the resulting dose-response curve to determine the resulting EC5O values (Graph Pad Prism).
For the purpose of the present study, a cell line permanently expressing the human mGlu2 receptor, the rat glutamate transporter rGLAST and the alpha subunit of G16 was generated by transfection. […]

EC50	Compound
1000 to 10000 nM	FC(F)(F)c1ccc(-c2n[nH]cc2CNc2ccc(Cl)cn2)cc1 [Example 340, (5-Chloro-pyridin-2-yl)-[3-(4-trifluoromethyl-phenyl)-1H-pyrazol-4-ylmethyl]-amine]
1000 to 10000 nM	FC(F)(F)c1ccc(-c2n[nH]cc2CNc2cccc(Cl)n2)cc1 [Example 349, (6-Chloro-pyridin-2-yl)-[3-(4-trifluoromethyl-phenyl)-1H-pyrazol-4-ylmethyl]-amine]
1000 to 10000 nM	Cc1ccc(NCc2c[nH]nc2-c2ccc(C(F)(F)F)cc2)nc1C [Example 363, (5,6-Dimethyl-pyridin-2-yl)-[3-(4-trifluoromethyl-phenyl)-1H-pyrazol-4-ylmethyl]-amine]
1000 to 10000 nM	CCC(CC)Oc1cccc(NCc2c[nH]nc2-c2ccc(C(F)(F)F)cc2)c1 [Example 380, [3-(1-Ethyl-propoxy)-phenyl]-[3-(4-trifluoromethyl-phenyl)-1H-pyrazol-4-ylmethyl]-amine]
1000 to 10000 nM	CS(=O)(=O)c1ccc(NCc2c[nH]nc2-c2ccc(C(F)(F)F)cc2)cc1 [Example 399, (4-Methanesulfonyl-phenyl)-[3-(4-trifluoromethyl-phenyl)-1H-pyrazol-4-ylmethyl]-amine]
1000 to 10000 nM	Cc1cc(=O)c2ccc(NCc3c[nH]nc3-c3ccc(C(F)(F)F)cc3)cc2o1 [Example 400, 2-Methyl-7-{[3-(4-trifluoromethyl-phenyl)-1H-pyrazol-4-ylmethyl]-amino}-chromen-4-one]
1000 to 10000 nM	CCCC(=O)c1ccc(NCc2c[nH]nc2-c2cccc(C(F)(F)F)c2)cc1 [Example 416, 1-(4-{[3-(3-Trifluoromethyl-phenyl)-1H-pyrazol-4-ylmethyl]-amino}-phenyl)-butan-1-one]
1000 to 10000 nM	CN(C)S(=O)(=O)c1cccc(NCc2c[nH]nc2-c2ccc(Cl)cc2)c1 [Example 430, 3-{[3-(4-Chloro-phenyl)-1H-pyrazol-4-ylmethyl]-amino}-N,N-dimethyl-benzenesulfonamide]
1000 to 10000 nM	CN(C)C(=O)c1ccc(NCc2c[nH]nc2-c2cccc(C(F)(F)F)c2)cc1 [Example 433, N,N-Dimethyl-4-{[3-(3-trifluoromethyl-phenyl)-1H-pyrazol-4-ylmethyl]-amino}-benzamide]
1000 to 10000 nM	CCCC(=O)c1ccc(NCc2c[nH]nc2-c2ccc(Cl)cc2)cc1OC(CC)CC [Example 437, 1-[4-{[3-(4-Chloro-phenyl)-1H-pyrazol-4-ylmethyl]-amino}-2-(1-ethyl-propoxy)-phenyl]-butan-1-one]
< 1000 nM	CC(=O)c1ccc(NCc2c[nH]nc2-c2ccc(Cl)cc2)c(C)c1O [Example 440, 1-(4-{[3-(4-Chloro-phenyl)-1H-pyrazol-4-ylmethyl]-amino}-2-hydroxy-3-methyl-phenyl)-ethanone]
1000 to 10000 nM	COC(=O)c1ccc(NCc2c[nH]nc2-c2ccc(Cl)cc2)cc1 [Example 443, 4-{[3-(4-Chloro-phenyl)-1H-pyrazol-4-ylmethyl]-amino}-benzoic acid methyl ester]

The remaining lines, values behind:

Compound	EC50
Cc1cc(C)nc(NCc2c[nH]nc2-c2ccc(C(F)(F)F)cc2)c1 [Example 341, (4,6-Dimethyl-pyridin-2-yl)-[3-(4-trifluoromethyl-phenyl)-1H-pyrazol-4-ylmethyl]-amine]	1000 to 10000 nM
COc1ccc(NCc2c[nH]nc2-c2ccc(C(F)(F)F)cc2)c(OC)n1 [Example 351, (2,6-Dimethoxy-pyridin-3-yl)-[3-(4-trifluoromethyl-phenyl)-1H-pyrazol-4-ylmethyl]-amine]	1000 to 10000 nM
CC(=O)c1sccc1NCc1c[nH]nc1-c1ccc(C(F)(F)F)cc1 [Example 355, 1-(3-{[3-(4-Trifluoromethyl-phenyl)-1H-pyrazol-4-ylmethyl]-amino}-thiophen-2-yl)-ethanone]	1000 to 10000 nM
CCCC(=O)c1ccc(NCc2cn(C)nc2-c2ccc(C(F)(F)F)cc2)cc1 [Example 374, 1-(4-{[1-Methyl-3-(4-trifluoromethyl-phenyl)-1H-pyrazol-4-ylmethyl]-amino}-phenyl)-butan-1-one]	< 1000 nM
CCCC(=O)c1ccc(NCc2cnn(C)c2-c2ccc(C(F)(F)F)cc2)cc1 [Example 375, 1-(4-{[1-Methyl-5-(4-trifluoromethyl-phenyl)-1H-pyrazol-4-ylmethyl]-amino}-phenyl)-butan-1-one]	< 1000 nM
CCC(C)Oc1cccc(NCc2c[nH]nc2-c2ccc(C(F)(F)F)cc2)c1 (stereo not shown) [Example 378, (3-sec-Butoxy-phenyl)-[3-(4-trifluoromethyl-phenyl)-1H-pyrazol-4-ylmethyl]-amine]	1000 to 10000 nM
CCCC(C)Oc1cccc(NCc2c[nH]nc2-c2ccc(C(F)(F)F)cc2)c1 (stereo not shown) [Example 379, [3-(1-Methyl-butoxy)-phenyl]-[3-(4-trifluoromethyl-phenyl)-1H-pyrazol-4-ylmethyl]-amine]	1000 to 10000 nM
CCCC(=O)c1ccc(N(Cc2cccnc2)S(=O)(=O)CC(F)(F)F)cc1 [Example 383, 2,2,2-Trifluoro-ethanesulfonic acid (4-butyryl-phenyl)-pyridin-3-ylmethyl-amide]	1000 to 10000 nM
CN(C)c1ccc(N(Cc2cccnc2)S(=O)(=O)CC(F)(F)F)cc1 [Example 385, 2,2,2-Trifluoro-ethanesulfonic acid (4-dimethylamino-phenyl)-pyridin-3-ylmethyl-amide]	1000 to 10000 nM
CCCC(=O)c1cccc(NCc2cccnc2)c1 [Example 386, 1-{3-[(Pyridin-3-ylmethyl)-amino]-phenyl}-butan-1-one]	1000 to 10000 nM
CCCC(=O)c1ccc(NCc2ccc(N(C)C)nc2)cc1 [Example 387, 1-{4-[(6-Dimethylamino-pyridin-3-ylmethyl)-amino]-phenyl}-butan-1-one]	1000 to 10000 nM
CN(C)c1cccc(N(Cc2cccnc2)S(=O)(=O)CC(F)(F)F)c1 [Example 389, 2,2,2-Trifluoro-ethanesulfonic acid (3-dimethylamino-phenyl)-pyridin-3-ylmethyl-amide]	1000 to 10000 nM
CCCC(=O)c1cccc(N(Cc2cccnc2)S(=O)(=O)CC(F)(F)F)c1 [Example 390, 2,2,2-Trifluoro-ethanesulfonic acid (3-butyryl-phenyl)-pyridin-3-ylmethyl-amide]	< 1000 nM
CCCC(=O)c1ccc(N(Cc2ccc(N(C)C)nc2)S(=O)(=O)CC(F)(F)F)cc1 [Example 391, 2,2,2-Trifluoro-ethanesulfonic acid (4-butyryl-phenyl)-(6-dimethylamino-pyridin-3-ylmethyl)-amide]	1000 to 10000 nM
CCCC(=O)c1cccc(N(C)Cc2c[nH]nc2-c2ccc(C(F)(F)F)cc2)c1 [Example 392, 1-(3-{Methyl-[3-(4-trifluoromethyl-phenyl)-1H-pyrazol-4-ylmethyl]-amino}-phenyl)-butan-1-one]	1000 to 10000 nM
CCCC(=O)c1ccc(OCCCCOc2cccnc2)cc1 [Example 423, 1-{4-[4-(Pyridin-3-yloxy)-butoxy]-phenyl}-butan-1-one]	1000 to 10000 nM
CCCC(=O)c1ccc(NCc2c[nH]nc2-c2cccc(C(F)(F)F)c2)cc1OC [Example 434, 1-(2-Methoxy-4-{[3-(3-trifluoromethyl-phenyl)-1H-pyrazol-4-ylmethyl]-amino}-phenyl)-butan-1-one]	< 1000 nM
CCCc1c(NCc2c[nH]nc2-c2cccc(C(F)(F)F)c2)ccc(C(C)=O)c1O [Example 436, 1-(2-Hydroxy-3-propyl-4-{[3-(3-trifluoromethyl-phenyl)-1H-pyrazol-4-ylmethyl]-amino}-phenyl)-ethanone]	1000 to 10000 nM
O=C(c1ccc(OCc2c[nH]nc2-c2cccc(C(F)(F)F)c2)cc1)C1CCCC1 [Example 442, Cyclopentyl-{4-[3-(3-trifluoromethyl-phenyl)-1H-pyrazol-4-ylmethoxy]-phenyl}-methanone]	< 1000 nM
